Our source for the remaining activity values is patent publication US20070117770A1, “Human ribosomal DNA (rDNA) and ribosomal RNA (rRNA) nucleic acids and uses thereof” (Cylene Pharmaceuticals, Inc., priority 2005, published 2007).

Holding throughout (assay): Protein kinase inhibition assay
Common to all, as to assay type: biochemical

One assay addresses FGFR1(h) (Homo sapiens, UniProt P11362). Particulars: read-out: percent residual activity of FGFR1(h). The procedure: (§1) Certain compounds were tested for activity in protein kinase inhibition assays. All substrates were dissolved and diluted to working stocks in de-ionized water, apart from histone H1 (10× working stock in 20 mM MOPS pH 7.0), PDKtide (10× working stock in 50 mM Tris pH 7.0) ATF2 (which is typically stored at a 20× working stock in 50 mM Tris pH 7.5, 150 mM NaCl, 0.1 mM EGTA, 0.03% Brij-35, 50% glycerol, 1 mM benzamidine, 0.2 mM PMSF and 0.1% R-mercaptoethanol), KKLNRTLSFAEPG (SEQ ID NO:203) and RRRLSFAEPG (SEQ ID NO:204) (50 mM HEPES pH 7.4) and GGEEEEYFELVKKKK (SEQ ID NO:205) (20 mM MOPS pH 7.0). All kinases were pre-diluted to a 10× working concentration prior to addition into the assay. The composition of the dilution buffer for each kinase is detailed below.
(§2) In a final reaction volume of 25 μl, FGFR1 (h) (5-10 mU) is incubated with 8 mM MOPS pH 7.0, 0.2 mM EDTA, 250 μM KKKSPGEYVNIEFG (SEQ ID NO:207), 10 mM MgAcetate and [y-33P-ATP] (specific activity approx. 500 cpm/pmol, concentration as required). The reaction is initiated by the addition of the MGATP mix. After incubation for 40 minutes at room temperature, the reaction is stopped by the addition of 5 μl of a 3% phosphoric acid solution. 10 μl of the reaction is then spotted onto a P30 filtermat and washed three times for 5 minutes in 75 mM phosphoric acid and once in methanol prior to drying and scintillation counting.

For the next assay, the target named is IKKα(h) (Homo sapiens, UniProt O15111). Particulars: read-out: percent residual activity of IKKα(h). As to the method:
as §1
as §2, with “IKKa” for “FGFR1”, “200” for “250”, “peptide,” for “KKKSPGEYVNIEFG (SEQ ID NO:207),”, “[gamma-33P-ATP]” for “[y-33P-ATP]”, “MgATP” for “MGATP”

In a further assay the target is Lyn(m) (Mus musculus, UniProt P25911). The note with it: read-out: percent residual activity of Lyn(m). As to the method:
as §1
In a final reaction volume of 25 μl, Lyn (m) (5-10 mU) is incubated with 50 mM Tris pH 7.5, 0.1 mM EGTA, 0.1 mM Na3VO4, 0.1% R-mercaptoethanol, 0.1 mg/ml poly(Glu, Tyr) 4:1, 10 mM MgAcetate and [gamma-33P-ATP] (specific activity approx. 500 cpm/pmol, concentration as required). The reaction is initiated by the addition of the MgATP mix. After incubation for 40 minutes at room temperature, the reaction is stopped by the addition of 5 μl of a 3% phosphoric acid solution. […]

The next assay concerns the target NEK6(h) (Homo sapiens, UniProt Q9HC98). Particulars: read-out: percent residual activity of NEK6(h). The procedure:
as §1
as §2, with “NEK6” for “FGFR1”, “300” for “250”, “FLAKSFGSPNRAYKK” for “KKKSPGEYVNIEFG”, “NO:221),” for “NO:207),”, “[gamma-33P-ATP]” for “[y-33P-ATP]”, “MgATP” for “MGATP”

For another assay, the target named is PAK2(h) (Homo sapiens, UniProt Q13177). The note with it: read-out: percent residual activity of PAK2(h). As to the method:
as §1
as §2, with “PAK2” for “FGFR1”, “30” for “250”, “KKKSPGEYVNIEFG” left out, “NO:222),” for “NO:207),”, “[gamma-33P-ATP]” for “[y-33P-ATP]”, “MgATP” for “MGATP”

The target in the next assay is PRK2(h) (Homo sapiens, UniProt Q16513). The note with it: read-out: percent residual activity of PRK2(h). The procedure: as §1
Chain of PRK2(h) (Q16513 whole entry): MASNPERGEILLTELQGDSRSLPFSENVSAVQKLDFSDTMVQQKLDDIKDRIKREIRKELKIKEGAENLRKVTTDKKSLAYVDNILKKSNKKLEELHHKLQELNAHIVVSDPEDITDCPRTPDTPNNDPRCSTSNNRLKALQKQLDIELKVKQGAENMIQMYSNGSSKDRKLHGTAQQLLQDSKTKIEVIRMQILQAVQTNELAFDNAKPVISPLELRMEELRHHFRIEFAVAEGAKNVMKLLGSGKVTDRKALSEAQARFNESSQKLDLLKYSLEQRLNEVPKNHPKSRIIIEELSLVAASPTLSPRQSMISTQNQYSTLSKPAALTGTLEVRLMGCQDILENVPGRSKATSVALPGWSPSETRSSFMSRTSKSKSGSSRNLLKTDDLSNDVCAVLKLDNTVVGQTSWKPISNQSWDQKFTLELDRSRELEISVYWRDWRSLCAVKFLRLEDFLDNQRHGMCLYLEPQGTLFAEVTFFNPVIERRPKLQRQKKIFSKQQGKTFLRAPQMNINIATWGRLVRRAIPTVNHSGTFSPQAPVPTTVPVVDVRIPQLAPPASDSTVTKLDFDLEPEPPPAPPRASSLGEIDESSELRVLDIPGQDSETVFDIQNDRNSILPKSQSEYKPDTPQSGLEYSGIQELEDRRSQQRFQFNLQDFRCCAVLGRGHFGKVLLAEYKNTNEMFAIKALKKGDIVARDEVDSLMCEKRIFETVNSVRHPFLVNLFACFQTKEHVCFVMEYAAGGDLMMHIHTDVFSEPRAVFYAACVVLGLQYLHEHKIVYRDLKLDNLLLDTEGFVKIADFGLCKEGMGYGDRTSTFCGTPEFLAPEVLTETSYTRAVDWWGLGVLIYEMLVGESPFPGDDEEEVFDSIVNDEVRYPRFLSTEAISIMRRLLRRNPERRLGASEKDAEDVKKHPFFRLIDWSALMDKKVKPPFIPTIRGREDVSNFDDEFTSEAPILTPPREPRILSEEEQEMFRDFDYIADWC
In a final reaction volume of 25 μl, PRK2 (h) (5-10 mU) is incubated with 50 mM Tris pH 7.5, 0.1 mM EGTA, 0.1% R-mercaptoethanol, 30 μM AKRRRLSSLRA (SEQ ID NO:226), 10 mM MgAcetate and [gamma-33P-ATP] (specific activity approx. 500 cpm/pmol, concentration as required). The reaction is initiated by the addition of the MgATP mix. After incubation for 40 minutes at room temperature, the reaction is stopped by the addition of 5 μl of a 3% phosphoric acid solution. […]

Chain of IKKα(h) (O15111 whole entry): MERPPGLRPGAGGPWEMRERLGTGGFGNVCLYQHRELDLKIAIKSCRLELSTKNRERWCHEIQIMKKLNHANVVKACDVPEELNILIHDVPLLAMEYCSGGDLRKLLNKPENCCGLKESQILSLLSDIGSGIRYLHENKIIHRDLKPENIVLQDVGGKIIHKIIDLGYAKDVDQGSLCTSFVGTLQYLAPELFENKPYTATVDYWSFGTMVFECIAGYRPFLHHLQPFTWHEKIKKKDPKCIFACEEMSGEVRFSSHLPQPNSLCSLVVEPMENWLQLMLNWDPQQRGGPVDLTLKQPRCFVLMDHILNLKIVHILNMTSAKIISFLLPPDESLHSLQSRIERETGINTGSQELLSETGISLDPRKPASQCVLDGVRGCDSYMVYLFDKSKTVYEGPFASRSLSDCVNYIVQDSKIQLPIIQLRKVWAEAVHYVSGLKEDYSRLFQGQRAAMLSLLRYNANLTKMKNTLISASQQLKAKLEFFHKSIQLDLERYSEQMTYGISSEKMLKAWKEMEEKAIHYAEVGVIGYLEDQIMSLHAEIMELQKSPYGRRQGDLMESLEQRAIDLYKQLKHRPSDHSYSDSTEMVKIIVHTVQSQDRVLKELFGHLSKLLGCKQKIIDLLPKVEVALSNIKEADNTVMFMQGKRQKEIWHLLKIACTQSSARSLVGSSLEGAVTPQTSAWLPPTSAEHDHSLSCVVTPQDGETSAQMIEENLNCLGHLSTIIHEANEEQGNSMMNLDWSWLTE
Chain of PAK2(h) (Q13177 whole entry): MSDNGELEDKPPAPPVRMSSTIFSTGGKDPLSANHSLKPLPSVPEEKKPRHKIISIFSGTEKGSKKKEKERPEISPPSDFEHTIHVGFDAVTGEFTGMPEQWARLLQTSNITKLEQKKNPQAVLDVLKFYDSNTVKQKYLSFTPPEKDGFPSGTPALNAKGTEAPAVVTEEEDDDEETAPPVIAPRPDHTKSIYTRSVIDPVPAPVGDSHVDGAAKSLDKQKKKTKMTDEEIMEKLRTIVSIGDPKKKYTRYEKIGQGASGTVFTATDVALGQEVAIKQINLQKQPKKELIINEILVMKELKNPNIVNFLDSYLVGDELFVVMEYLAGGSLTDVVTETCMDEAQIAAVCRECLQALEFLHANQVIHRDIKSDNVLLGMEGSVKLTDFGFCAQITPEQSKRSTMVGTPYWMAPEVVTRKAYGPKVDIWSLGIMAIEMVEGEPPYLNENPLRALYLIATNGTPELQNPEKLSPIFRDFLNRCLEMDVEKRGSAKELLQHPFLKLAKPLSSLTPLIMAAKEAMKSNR
Chain of NEK6(h) (Q9HC98 whole entry): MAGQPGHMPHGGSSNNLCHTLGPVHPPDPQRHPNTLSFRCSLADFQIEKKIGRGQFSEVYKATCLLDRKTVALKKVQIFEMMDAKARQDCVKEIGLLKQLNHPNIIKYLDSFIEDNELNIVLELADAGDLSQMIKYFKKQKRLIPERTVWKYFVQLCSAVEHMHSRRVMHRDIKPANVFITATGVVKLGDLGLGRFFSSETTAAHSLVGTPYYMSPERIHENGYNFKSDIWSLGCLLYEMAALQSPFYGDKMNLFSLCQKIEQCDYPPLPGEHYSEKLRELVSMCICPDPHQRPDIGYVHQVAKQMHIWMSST
Chain of Lyn(m) (P25911 whole entry): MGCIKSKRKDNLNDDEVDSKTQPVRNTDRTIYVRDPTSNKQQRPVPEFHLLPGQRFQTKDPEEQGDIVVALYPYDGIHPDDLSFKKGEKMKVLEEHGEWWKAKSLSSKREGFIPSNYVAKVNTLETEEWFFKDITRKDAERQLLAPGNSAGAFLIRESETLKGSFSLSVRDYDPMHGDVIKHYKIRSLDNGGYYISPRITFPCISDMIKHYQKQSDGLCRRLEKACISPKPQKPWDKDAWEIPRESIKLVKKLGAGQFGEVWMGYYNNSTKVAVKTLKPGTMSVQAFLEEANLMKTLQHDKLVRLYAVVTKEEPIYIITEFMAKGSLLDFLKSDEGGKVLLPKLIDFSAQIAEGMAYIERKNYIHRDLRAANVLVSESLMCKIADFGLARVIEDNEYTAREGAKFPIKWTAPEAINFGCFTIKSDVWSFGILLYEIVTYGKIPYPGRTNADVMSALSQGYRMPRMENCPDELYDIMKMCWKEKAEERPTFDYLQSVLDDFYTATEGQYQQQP
Chain of FGFR1(h) (P11362 22-822): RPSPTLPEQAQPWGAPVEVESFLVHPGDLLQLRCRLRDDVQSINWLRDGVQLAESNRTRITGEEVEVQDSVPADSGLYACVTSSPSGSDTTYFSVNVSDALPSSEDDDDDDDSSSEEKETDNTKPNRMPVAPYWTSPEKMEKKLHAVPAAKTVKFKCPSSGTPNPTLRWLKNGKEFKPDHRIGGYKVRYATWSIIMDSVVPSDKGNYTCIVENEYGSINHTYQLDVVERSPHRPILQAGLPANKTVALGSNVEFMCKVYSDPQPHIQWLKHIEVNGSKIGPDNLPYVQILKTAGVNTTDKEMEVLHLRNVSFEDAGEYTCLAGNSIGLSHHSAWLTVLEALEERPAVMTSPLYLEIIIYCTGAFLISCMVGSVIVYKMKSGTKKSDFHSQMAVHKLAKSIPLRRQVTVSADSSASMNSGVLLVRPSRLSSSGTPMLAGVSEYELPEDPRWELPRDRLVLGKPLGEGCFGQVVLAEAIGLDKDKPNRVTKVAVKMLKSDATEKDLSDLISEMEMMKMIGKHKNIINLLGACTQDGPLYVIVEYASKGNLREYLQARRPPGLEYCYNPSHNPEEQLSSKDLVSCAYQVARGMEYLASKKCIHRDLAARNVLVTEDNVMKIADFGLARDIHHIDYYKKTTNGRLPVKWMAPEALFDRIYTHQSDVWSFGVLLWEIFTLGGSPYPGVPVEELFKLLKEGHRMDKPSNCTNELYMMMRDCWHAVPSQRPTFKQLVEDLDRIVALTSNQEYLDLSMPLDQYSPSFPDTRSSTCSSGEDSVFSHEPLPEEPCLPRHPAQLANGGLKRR

Consider `CN1CCCC1CCNC(=O)c1cn2c3c(c(N4CCC(c5cnccn5)C4)c(F)cc3c1=O)Oc1cc3ccccc3cc1-2` (stereo not drawn) [Compound A-1], for which the remaining activity at 2.5 µM was 84% on FGFR1(h); 68% on IKKα(h); 89% on Lyn(m); 78% at NEK6(h); 73% at PAK2(h); 36% at PRK2(h).

As to `CC(=O)N1CCN(c2ccc3c(=O)c(C(=O)NCCN4CCCC4)c4n(C)c5ccccc5n4c3n2)CC1` [Compound B-1], the remaining activity at 2.5 µM at FGFR1(h) came out at 118%; at IKKα(h), 118%; at Lyn(m), 106%; on NEK6(h), 111%; at PAK2(h) it was 95%; at PRK2(h) it was 110%.
